Measured values reported in article PMC5912893 (Journal of medicinal chemistry, 2018).

Legend:
A375, M14, and RPMI7951 = test: Cytotoxic activity against three human malignant melanoma cell lines; conditions: read-out: IC50 (approximate, three melanoma cell lines)
A375 xenograft = test: A375 melanoma xenograft model in nude mice; assay type: in vivo; conditions: for apoptosis in tumors (cleaved caspase 3 IHC): IHC staining
PC-3/TxR xenograft = test: Paclitaxel resistant PC-3/TxR prostate cancer xenograft model in nude mice; assay type: in vivo; conditions: for effect on tumor growth (in words): vs vehicle
purified tubulin = purified tubulin (Sus scrofa, UniProt P02550+P02554); test: Cell-free microtubule polymerization assay; assay type: biochemical, porcine; conditions: tubulin 3.33 mg/mL, absorbance 340 nm, 37 °C, 50 min
PC-3 xenograft = conditions: nude mice
RPMI7951 = test: Wound healing assay, RPMI7951 cells; assay type: cell-based, human; conditions: 18 h, untreated control 71.8%
WM164 melanoma cells = test: Confocal immunofluorescent microscopy of microtubule networks; assay type: cell-based, human; conditions: 100 nM, 18 h

purified tubulin, sequence (P02554 whole entry): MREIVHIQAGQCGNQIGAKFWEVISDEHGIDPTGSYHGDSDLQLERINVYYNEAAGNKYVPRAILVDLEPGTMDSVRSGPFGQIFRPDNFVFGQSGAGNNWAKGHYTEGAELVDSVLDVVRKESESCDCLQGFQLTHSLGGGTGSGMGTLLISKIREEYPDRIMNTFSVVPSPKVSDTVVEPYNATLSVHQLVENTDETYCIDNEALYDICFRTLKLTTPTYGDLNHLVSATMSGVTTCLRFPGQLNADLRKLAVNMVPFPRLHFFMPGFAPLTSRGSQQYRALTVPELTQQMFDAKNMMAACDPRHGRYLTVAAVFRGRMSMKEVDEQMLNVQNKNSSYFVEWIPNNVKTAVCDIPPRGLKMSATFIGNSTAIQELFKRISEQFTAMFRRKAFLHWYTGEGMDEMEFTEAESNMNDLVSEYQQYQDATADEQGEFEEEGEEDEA
purified tubulin, sequence (P02550 whole entry): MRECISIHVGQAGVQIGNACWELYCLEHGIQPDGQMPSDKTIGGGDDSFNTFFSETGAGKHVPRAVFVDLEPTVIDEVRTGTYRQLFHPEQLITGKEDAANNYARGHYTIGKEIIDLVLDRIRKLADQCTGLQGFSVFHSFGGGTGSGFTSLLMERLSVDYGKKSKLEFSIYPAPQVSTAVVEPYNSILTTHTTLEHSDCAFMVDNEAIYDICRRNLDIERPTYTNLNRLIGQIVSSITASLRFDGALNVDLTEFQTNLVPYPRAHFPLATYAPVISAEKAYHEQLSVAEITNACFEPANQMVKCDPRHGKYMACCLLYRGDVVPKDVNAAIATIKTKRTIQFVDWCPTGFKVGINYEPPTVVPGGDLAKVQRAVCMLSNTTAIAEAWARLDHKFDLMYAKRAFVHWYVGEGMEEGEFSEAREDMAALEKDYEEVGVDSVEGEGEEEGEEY

Compound	IC50 (A375, M14, and RPMI7951)	microvessel density in tumors (CD31 staining) (A375 xenograft)	apoptosis in tumors (cleaved caspase 3 IHC) (A375 xenograft)	effect on tubulin polymerization (purified tubulin)	other results
COc1ccc2c(c1)OCCN2c1nc(Cl)nc2ncccc12 [compound 19, 4-(2-Chloropyrido[2,3-d]pyrimidin-4-yl)-7-methoxy-3,4-dihydro-2H-benzo[b][1,4]oxazine]	298 nM	–	–	–	–
CC(=O)O[C@H]1C(=O)[C@@]2(C)[C@H]([C@H](OC(=O)c3ccccc3)[C@]3(O)C[C@H](OC(=O)[C@H](O)[C@@H](NC(=O)c4ccccc4)c4ccccc4)C(C)=C1C3(C)C)[C@]1(OC(C)=O)CO[C@@H]1C[C@@H]2O [paclitaxel, reference compound]	–	less microvessel density	increase in the number of cells undergoing apoptosis	greatest polymerization	mouse body weight (PC-3/TxR xenograft): began to drop considerably after 2 weeks of treatment; effect on tumor growth (in words) (PC-3/TxR xenograft): no difference in tumor growth; susceptibility of nonresistant tumors to treatment (PC-3 xenograft): highly susceptible
COc1cc2c(c(OC)c1OC)-c1ccc(OC)c(=O)cc1[C@@H](NC(C)=O)CC2 [colchicine]	–	–	–	–	wound closure, RPMI7951, 5 nM (RPMI7951): a significant decrease in migration was not observed
COc1ccc2c(c1)CCCN2c1nc(Cl)nc2ccoc12 [6a, 2-Chloro-4-(6-methoxy-3,4-dihydroquinolin-1(2H)-yl)furo[3,2-d]pyrimidine]	~3 nM	less microvessel density	increase in the number of cells undergoing apoptosis	effectively inhibited tubulin polymerization in a dose-dependent manner	–
COc1ccc(N(C)c2nc(Cl)nc3ncccc23)cc1OC [21a, 2-Chloro-N-(3,4-dimethoxyphenyl)-N-methylpyrido[2,3-d]-pyrimidin-4-amine]	45 nM	–	–	–	–
COc1ccc2c(c1)C(O)CCN2c1nc(Cl)nc2ncccc12 (stereo not drawn) [compound 17, 1-(2-Chloropyrido[2,3-d]pyrimidin-4-yl)-6-methoxy-1,2,3,4-tetrahydroquinolin-4-ol]	~30 nM	–	–	–	–
COc1ccc2c(c1)CCCN2c1nc(Cl)nc2ncccc12 [4a, 2-Chloro-4-(6-methoxy-3,4-dihydroquinolin-1(2H)-yl)pyrido-[2,3-d]pyrimidine]	~6 nM	less microvessel density	increase in the number of cells undergoing apoptosis	effectively inhibited tubulin polymerization in a dose-dependent manner	effect on tumor growth (in words) (PC-3/TxR xenograft): significant decrease in tumor volume; effect on microtubule networks (WM164 melanoma cells): causes fragmentation of the microtubules, decreases polymeric tubulin filaments, and increases cytoplasmic soluble tubulin
CC(=O)O[C@@]12CO[C@@H]1C[C@H](O)[C@@]1(C)C(=O)[C@H](O)C3=C(C)[C@@H](OC(=O)[C@H](O)[C@@H](NC(=O)OC(C)(C)C)c4ccccc4)C[C@@](O)([C@@H](OC(=O)c4ccccc4)[C@H]21)C3(C)C [docetaxel, reference compound]	–	–	–	–	effect on microtubule networks (WM164 melanoma cells): dense tubulin accretion, representative of aggressive polymerization
